The target of one experiment is T1, human CYP11B1 (Homo sapiens, UniProt P15538).
T1 construct: expressed in transfected cells
T1 sequence (P15538 25-503): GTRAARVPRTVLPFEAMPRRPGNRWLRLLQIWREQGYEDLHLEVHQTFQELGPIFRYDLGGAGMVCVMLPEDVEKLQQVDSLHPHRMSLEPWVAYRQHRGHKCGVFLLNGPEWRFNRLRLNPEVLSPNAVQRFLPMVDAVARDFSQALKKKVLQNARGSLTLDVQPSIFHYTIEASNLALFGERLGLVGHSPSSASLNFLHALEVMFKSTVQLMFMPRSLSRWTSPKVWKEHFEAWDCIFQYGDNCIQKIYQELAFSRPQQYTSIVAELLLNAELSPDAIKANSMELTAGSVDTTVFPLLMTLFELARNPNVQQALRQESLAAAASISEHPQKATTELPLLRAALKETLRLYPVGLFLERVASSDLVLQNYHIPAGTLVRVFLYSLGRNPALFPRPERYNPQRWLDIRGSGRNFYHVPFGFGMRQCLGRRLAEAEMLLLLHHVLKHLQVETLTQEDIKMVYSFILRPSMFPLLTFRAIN
Kind of experiment: G-402 cellular enzyme assay, human CYP11B1 (cortisol release, HTRF). Type of experiment: cell-based. The conditions noted are these: G-402 cells, 1 μM Deoxycortisol. An outline of the steps: (§1)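 Supernatant steroid product measured by HTRF (aldosterone for CYP11B2, cortisol for CYP11B1) after 16 h exposure of stably transfected G-402 cells to compound. Substrates were 1 μM deoxycorticosterone and 1 μM deoxycortisol, respectively; EC50 derived from a four-parameter MMF curve fit.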

The next experiment has as its target T2, human CYP11B2 (Homo sapiens, UniProt P19099).
T2 construct: expressed in transfected cells
T2 sequence (P19099 25-503): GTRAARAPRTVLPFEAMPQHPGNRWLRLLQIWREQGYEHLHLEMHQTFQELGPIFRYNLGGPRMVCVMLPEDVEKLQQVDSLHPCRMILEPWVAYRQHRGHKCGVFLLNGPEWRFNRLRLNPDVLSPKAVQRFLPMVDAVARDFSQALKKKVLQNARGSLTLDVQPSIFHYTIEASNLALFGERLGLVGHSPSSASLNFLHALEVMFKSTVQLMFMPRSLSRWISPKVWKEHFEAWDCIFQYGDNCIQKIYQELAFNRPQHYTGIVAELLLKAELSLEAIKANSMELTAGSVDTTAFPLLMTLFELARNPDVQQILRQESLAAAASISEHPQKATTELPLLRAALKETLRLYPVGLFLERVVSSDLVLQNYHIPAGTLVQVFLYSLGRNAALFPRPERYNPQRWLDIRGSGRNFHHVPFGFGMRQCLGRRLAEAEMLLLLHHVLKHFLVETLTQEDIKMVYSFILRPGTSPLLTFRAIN
Kind of experiment: G-402 cellular enzyme assay, human CYP11B2 (aldosterone release, HTRF). Type of experiment: cell-based. The conditions noted are these: G-402 cells, 1 μM Deoxycorticosterone. An outline of the steps: as §1

In patent US9133158B2, “Bicyclic dihydroisoquinoline-1-one derivatives” (Hoffmann-La Roche Inc., priority 2011, dated 2015) one finds EC50 data, which are given here for 22 compounds.

Regarding `CS(=O)(=O)NC1CCCc2c1cncc2N1Cc2cc(Cl)ccc2C1=O` (single isomer, unassigned) [Example 326, N-[(S or R)-4-(5-Chloro-1-oxo-1,3-dihydro-isoindol-2-yl)-5,6,7,8-tetrahydro-isoquinolin-8-yl]-methanesulfonamide], the results for the EC50 at human CYP11B1 and on human CYP11B2 were 6610 nM and 1870 nM, respectively.

For the compound `O=C1c2ccc(Cl)cc2C2(CC2)N1c1cnccc1Cl` [Example 305, 6′-Chloro-2′-(4-chloropyridin-3-yl)spiro[cyclopropane-1,1′-isoindol]-3′(2′H)-one], the 50% effective concentration (EC50) on human CYP11B1 came to 860 nM; on human CYP11B2, 5.4 nM.

Turning to `CCC(=O)N[C@H]1CCc2c1cncc2N1C(=O)c2ccc(Cl)cc2[C@@H]1C` (single isomer, unassigned) [Example 378, N-[(S or R)-4-((S or R)-5-Chloro-3-methyl-1-oxo-1,3-dihydro-isoindol-2-yl)-6,7-dihydro-5H-[2]pyrindin-7-yl]-propionamide], the results for the EC50 at human CYP11B1 and on human CYP11B2 were 14600 nM and 212 nM, respectively.

Consider `O=C(Cc1cncc(N2CCc3cc(Cl)ccc3C2=O)c1)N1CCOCC1` [Example 263, 6-Chloro-2-[5-(2-morpholin-4-yl-2-oxo-ethyl)-pyridin-3-yl]-3,4-dihydro-2H-isoquinolin-1-one], for which the figures for the EC50 at human CYP11B1 and on human CYP11B2 were 4930 nM and 491 nM, respectively.

Consider `O=C1c2ccc(Cl)cc2CCN1c1cncc(CN2CCS(=O)(=O)CC2)c1` [Example 156, 6-Chloro-2-[5-(1,1-dioxo-1λ^6-thiomorpholin-4-ylmethyl)-pyridin-3-yl]-3,4-dihydro-2H-isoquinolin-1-one], for which the EC50 at human CYP11B1 is 337 nM; at human CYP11B2, 43.9 nM.

As to `CC(=O)NC1CCc2c1cncc2N1CCc2cc(Cl)ccc2C1=O` (single isomer, unassigned) [Example 333, N-[(S or R)-4-(6-Chloro-1-oxo-3,4-dihydro-1H-isoquinolin-2-yl)-6,7-dihydro-5H-[2]pyrindin-7-yl]-acetamide], the EC50 on human CYP11B1 is 5240 nM; on human CYP11B2, 95.8 nM.

Take `O=C1CCCN1c1cncc(N2CCc3cc(Cl)ccc3C2=O)c1` [Example 26, 6-Chloro-2-[5-(2-oxo-pyrrolidin-1-yl)-pyridin-3-yl]-3,4-dihydro-2H-isoquinolin-1-one]: the EC50 came to 8150 nM at human CYP11B1 and 321 nM at human CYP11B2.

As for `CC(=O)N[C@@H]1CCCc2c1cncc2N1C(=O)c2ccc(Cl)cc2[C@@H]1C` (single isomer, unassigned) [Example 366, N-[(R or S)-4-((S or R)-5-Chloro-3-methyl-1-oxo-1,3-dihydro-isoindol-2-yl)-5,6,7,8-tetrahydro-isoquinolin-8-yl]-acetamide], the EC50 at human CYP11B1 stood at 82 nM; on human CYP11B2 it was 4.4 nM.

Consider `O=C1c2ccc(Cl)cc2CCN1c1cncc(CN2CC[C@H](O)C2)c1` [Example 148, 6-Chloro-2-[5-((S)-3-hydroxy-pyrrolidin-1-ylmethyl)-pyridin-3-yl]-3,4-dihydro-2H-isoquinolin-1-one], for which the results for the EC50 on human CYP11B1 and on human CYP11B2 were 139 nM and 45.1 nM, respectively.

With `CCS(=O)(=O)NC1CCCc2c1cncc2N1Cc2cc(Cl)ccc2C1=O` (single isomer, unassigned; (-)) [Example 317, (−)-Ethanesulfonic acid [(S or R)-4-(5-chloro-1-oxo-1,3-dihydro-isoindol-2-yl)-5,6,7,8-tetrahydro-isoquinolin-8-yl]-amide], the EC50 was determined as 2640 nM on human CYP11B1 and 109 nM at human CYP11B2.

In the case of `Cc1nccn1Cc1cncc(N2C(=O)c3ccc(Cl)cc3C2(C)C)c1` [Example 134, 5-Chloro-3,3-dimethyl-2-[5-(2-methyl-imidazol-1-ylmethyl)-pyridin-3-yl]-2,3-dihydro-isoindol-1-one], the EC50 at human CYP11B1 amounted to 424 nM; at human CYP11B2, 18.6 nM.

As for `CCOc1ccc2c(n1)C(C)(C)N(c1cncc(F)c1)C2=O` [Example 299, 2-Ethoxy-6-(5-fluoro-pyridin-3-yl)-7,7-dimethyl-6,7-dihydro-pyrrolo[3,4-b]pyridin-5-one], the EC50 at human CYP11B1 was 48500 nM; at human CYP11B2 it was 787 nM.

For `O=C(c1cncc(N2CCc3cc(Cl)ccc3C2=O)c1)N1CCC(F)(F)CC1` [Example 47, 6-Chloro-2-[5-(4,4-difluoro-piperidine-1-carbonyl)-pyridin-3-yl]-3,4-dihydro-2H-isoquinolin-1-one], the EC50 at human CYP11B1 is 23200 nM; on human CYP11B2, 1030 nM.

As for `O=C1c2ccc(Cl)cc2CCN1c1cncc(Cn2nccn2)c1` [Example 174, 6-Chloro-2-(5-[1,2,3]triazol-2-ylmethyl-pyridin-3-yl)-3,4-dihydro-2H-isoquinolin-1-one], the results for the 50% effective concentration (EC50) at human CYP11B1 and on human CYP11B2 were 211 nM and 25.8 nM, respectively.

As to `COc1ccc2c(n1)C(C)(C)N(c1cncc(-c3ccnn3C)c1)C2=O` [Example 426, 2-Methoxy-7,7-dimethyl-6-[5-(2-methyl-2H-pyrazol-3-yl)-pyridin-3-yl]-6,7-dihydro-pyrrolo[3,4-b]pyridin-5-one], the figures for the EC50 on human CYP11B1 and at human CYP11B2 were 572 nM and 12.1 nM, respectively.

In the case of `O=C1c2ccc(Cl)cc2CCN1c1cncc(Cn2cncn2)c1` [Example 180, 6-Chloro-2-(5-[1,2,4]triazol-1-ylmethyl-pyridin-3-yl)-3,4-dihydro-2H-isoquinolin-1-one], the EC50 on human CYP11B1 came out at 802 nM; on human CYP11B2 it was 123 nM.

For `CS(=O)(=O)NC1CCCc2c1cncc2N1Cc2cc(Cl)ccc2C1=O` (single isomer, unassigned) [Example 327, N-[(R or S)-4-(5-Chloro-1-oxo-1,3-dihydro-isoindol-2-yl)-5,6,7,8-tetrahydro-isoquinolin-8-yl]-methanesulfonamide], the EC50 is 10700 nM on human CYP11B1 and 1360 nM at human CYP11B2.

With `CC(C)OCc1ccncc1N1CCc2cc(Cl)ccc2C1=O` [Example 77, 6-Chloro-2-(4-isopropoxy-methyl-pyridin-3-yl)-3,4-dihydro-2H-isoquinolin-1-one], the figures for the EC50 on human CYP11B1 and at human CYP11B2 were 12800 nM and 665 nM, respectively.

As to `CCC(=O)NC1CCCc2c1cncc2N1CCc2cc(Cl)ccc2C1=O` (single isomer, unassigned) [Example 329, N-((S or R)-6-Chloro-1-oxo-3,4,5′,6′,7′,8′-hexahydro-1H-[2,4′]biisoquinolinyl-8′-yl)-propionamide], the EC50 came out at 12000 nM at human CYP11B1 and 6020 nM on human CYP11B2.

In the case of `O=C1c2ccc(Cl)cc2CCN1c1cncc(CNc2cc[nH]n2)c1` [Example 262, 6-Chloro-2-{5-[(1H-pyrazol-3-ylamino)-methyl]-pyridin-3-yl}-3,4-dihydro-2H-isoquinolin-1-one], the EC50 was found to be 300 nM at human CYP11B1 and 14.1 nM at human CYP11B2.

Consider `CCS(=O)(=O)Nc1cccc2c(N3CCc4cc(Cl)ccc4C3=O)cncc12` [Example 289, Ethanesulfonic acid (6-chloro-1-oxo-3,4-dihydro-1H-[2,4′]biisoquinolinyl-8′-yl)-amide], for which the EC50 at human CYP11B1 was 186 nM; on human CYP11B2 it was 70.6 nM.

Consider `CS(=O)(=O)NCc1cncc(N2CCc3cc(Cl)ccc3C2=O)c1` [Example 152, N-[5-(6-Chloro-1-oxo-3,4-dihydro-1H-isoquinolin-2-yl)-pyridin-3-ylmethyl]-methanesulfonamide], for which the values for the EC50 at human CYP11B1 and at human CYP11B2 were 11600 nM and 295 nM, respectively.

By EC50 is commonly meant the concentration at which the effect is half-maximal. Read a low EC50 as higher potency in that assay.
